Measured values reported in US20250388858A1, “COMPOSITION FOR EMBRYONIC DEVELOPMENT, COMPRISING RAD51 ACTIVATOR, AND METHOD FOR IMPROVING EMBRYONIC DEVELOPMENT RATE USING SAME” (CHA UNIVERSITY INDUSTRY-ACADEMIC COOPERATION FOUNDATION, priority 2018, published 2025).

Legend:
SCNT eggs (F/T SCNT) [1] = assay: Comet assay for DNA breaks; type: cell-based, mice; details: SCNT+RS-1 group vs SCNT group; FIG. 6
Experimental: In detail, to examine DNA damage, each sample in a 1 ml tube from which a culture medium was removed was suspended in 1% agarose at 37° C., and then fixed on a pre-coated slide (Trevigen). The slide was incubated at 4° C. for 4 hr, and then immersed in a solution (Trevigen) at 4° C. for 4 hr. The slide was removed from the lysis solution, and immersed in a 1×TAE buffer at 4° C. for 30 min, followed by electrophoresis for 30 min to 40 min. The slide was immersed in 1 M ammonium acetate at room temperature for 30 min, and then fixed at […] After fixing at room temperature for 30 min, incubation was performed at 42° C. for 20 min until agarose was completely dried. Thereafter, staining was performed using a 1×SYBR green I staining solution for 5 min.

[2] = test system: surrogate female ICR mice
Excerpt: It is reported that a success rate of cloned mouse production is generally about 1% after normal somatic cell cloning. Therefore, implantation and cloned pups formation rates of mice were examined according to treatment of SCNT eggs with RS-1. In detail, SCNT and SCNT+RS-1 oocytes at the 2-cell stage were implanted into the uterus of surrogate female ICR mice at 0.5 days after pseudopregnancy. At 19.5 days after implantation, the somatic cell cloned mice were separated from the uterus of the surrogate mother, and then the cloned mice were nurtured together with normal ICR mice born on the same day by ICR mice smeared with the smell of the surrogate mother.

SCNT eggs (F/T SCNT) [3] = assay: LC3B (autophagy) and MitoTracker (mitochondria) staining of eggs; type: cell-based, mice; details: 2-cell stage; SCNT+RS-1 group; FIG. 3B
Experimental: In detail, to evaluate mitochondria distribution, SCNT-derived somatic cell cloned eggs at the 1-cell stage, 2-cell stage, and 4-cell stage were stained using MitoTracker Orange CMTMRos (Molecular Probes). Mitotracker was used at a concentration of 300 nM in an M16 culture medium supplemented with 0.3% BSA at 37° C. for 30 min in the dark. After washing, the oocytes were fixed and immunofluorescently stained with LC3B antibody and then nuclei were stained with DAPI.

blastocysts of SCNT eggs = assay: Embryonic stem cell establishment from SCNT blastocysts; type: cell-based, mouse; details: SCNT+RS-1 blastocysts on MEF feeder cells; non-RS-1 treated group 17%; FIG. 9B
Experimental: In detail, blastocysts of each group was cultured on mouse embryonic fibroblast (MEF cells) feeder cells in a mouse embryonic stem cell culture medium. 20% KSR, 0.1 mM β-mercaptoethanol, 1% non-essential amino acids, 100 units/ml penicillin, 100 μg/ml streptomycin (all products available from GIBCO), 1.5×10^3 units/ml of recombination mLif (Chemicon) were used in the culture medium. Subculture was performed using Trypsin-EDTA, and the established embryonic stem cells of somatic cell cloned mice were treated with alkaline phosphatase. The established stem cells were evaluated by histochemical staining.

SCNT eggs (F/T SCNT) [4] = assay: CellROX reactive oxygen species staining of eggs at the 2-cell stage; type: cell-based, mice; details: SCNT+RS-1 group, FIG. 5A
Experimental: In detail, IVF group, SCNT+RS-1 group, and SCNT group at the 2-cell stage were incubated at 37° C. for 30 min in the dark in a culture medium supplemented with 5 μM of CellROX oxidative stress reagent for 30 min. Thereafter, each group was washed with 0.1% PVA-added D-PBS, and nuclei were stained with Hoechst (Sigma).

SCNT eggs = assay: RNA sequencing of cloned eggs at the 2-cell stage; type: cell-based, mouse; details: SCNT+RS-1 group
Experimental: To examine the effect of RS-1 treatment on SCNT eggs, RS-1 was treated to cloned eggs at the 2-cell stage during the somatic cell cloning procedure of Example 1, followed by RNA sequencing. At this time, IVF eggs were used as a negative control group. In detail, complementary DNA (cDNA) was amplified using a SMARTer ultra-low input RNA Kit for cDNA preparation (Takara, 634890) according to the manufacturer's instructions. cDNA was fragmented into about 200 bp fragments using a M220 sonicator (Covaris). The fragmented cDNAs were subjected to end-repair, and an adapter was ligated thereto. Sequencing libraries were prepared using a ScriptSeq v2 kit (Illumina) according to the manufacturer's instructions. Single-end sequencing was performed in HiSeq2500 (Illumina), and mapped to the mm9 mouse genome using STAR (v2.5.2b, https://github.com/alexdobin/STAR). Subsequently, […] (FPKM) was calculated by cuff link (v2.2.1) with default options.
To examine cloning mechanisms in the RS-1-treated SCNT egg (SCNT+RS-1) of Example 3 and the cloned egg (SCNT+Kdm4a) injected with Kdm4a mRNA during SCNT of Example 2, genes expressed in each egg were examined in the same manner as in Example 8.

SCNT eggs (F/T SCNT) [5] = assay: Embryonic development of SCNT eggs cultured with RS-1 (somatic cell cloning efficiency); type: cell-based, mice; details: for Number of embryos at 2-cell stage (%)+: based on the number of reconstructed oocytes; for Number of embryos at 4-cell stage (%)# / Number of blastocysts (%)# / Number of embryos at 2-cell stage block (%)#: based on the number of embryos at 2-cell stage
Experimental: 5IU PMSG and 5IU hCG hormone were administered into 8-week to 10-week-old female BDF/1 mice. 14 hr after hCG administration, cumulus cells were isolated from superovulated mice using hyaluronidase and eggs were collected. The isolated cumulus cells were refrigerated for use as somatic cell for donor cells, and the isolated eggs were stored in a KSOM culture medium in an incubator at 37° C. until experiments started. Thereafter, to carry out a somatic cell cloning experiment, nuclei were removed from matured eggs, and cumulus cells isolated in advance were directly injected as donor cells. The cumulus cells injected as donor cells were artificially activated in a culture medium containing a Rad51-stimulatory compound 1 (RS-1) for 6 hr. Thereafter, the cells were incubated in the culture medium containing RS-1 reagent for 22 hr. 22 hr later, the cells were incubated in a KSOM culture medium for 72 hr to 96 hr.
First, to examine whether RS-1 induced toxicity to egg development, IVF eggs and SCNT eggs (F/T SCNT) of Example 1 were treated with 0 μM, 1 μM, 5 μM, and 10 μM of RS-1, respectively, and an appropriate concentration was selected.

SCNT eggs (F/T SCNT) [6] = assay: Immunostaining of DNA damage biomarker rH2AX and Rad51; type: cell-based, mice
Experimental: In detail, IVF group, SCNT group, and SCNT+RS-1 group fixed in 4% paraformaldehyde were arrested at the 1-cell stage, 2-cell stage, and 4-cell stage, and then incubated with rH2AX (Abcam, ab22551) Rad51 (Abcam, ab63801) for 2 hr, followed by incubation in the presence of goat anti-mouse antibody diluted with PBS/0.1% BSA at 1:200, and goat anti-rabbit antibody at the same concentration for 1 hr. Thereafter, nuclei were stained with DAPI.

## O=C(Nc1ccc(Br)cc1)c1ccc(Br)c(S(=O)(=O)NCc2ccccc2)c1 [RS-1, 3-[(benzylamino)sulfonyl]-4-bromo-N-(4-bromophenyl)benzamide]
SCNT eggs (F/T SCNT) [1]
  DNA breaks (length of 3'-end, comet assay): DNA breaks were decreased
  generation of the abnormal 3'-end: significantly reduced
[2]; SCNT+RS-1 oocytes at the 2-cell stage implanted into surrogate ICR mice, generally about 1% after normal cloning, FIG. 9A
  production rate of cloned mouse: 5%
[2]; mouse, in vivo
  toxicity during development: no toxicity problem
SCNT eggs (F/T SCNT) [3]
  autophagy (LC3B) and mitochondria (mitotracker) expression pattern: intensive autophagy and mitochondria expression in the nucleus
Blastocysts of SCNT eggs
  induction rate of embryonic stem cells: 45%
SCNT eggs (F/T SCNT) [4]
  reactive oxygen species in the nuclei: tended to increase
SCNT eggs
  number of genes significantly decreased: 414 genes
  number of genes significantly increased: 190 genes
SCNT eggs (F/T SCNT) [5]; RS-1 1 μM, 45 NT oocytes
  Number of embryos at 2-cell stage (%)+: 42%
SCNT eggs (F/T SCNT) [5]; RS-1 1 μM
  Number of embryos at 4-cell stage (%)#: 35%
  Number of blastocysts (%)#: 8(19) %
  Number of embryos at 2-cell stage block (%)#: 7(16.7) %
SCNT eggs (F/T SCNT) [5]; RS-1 5 μM, 46 NT oocytes
  Number of embryos at 2-cell stage (%)+: 43%
SCNT eggs (F/T SCNT) [5]; RS-1 5 μM
  Number of embryos at 4-cell stage (%)#: 36%
  Number of blastocysts (%)#: 18(41.9) %
  Number of embryos at 2-cell stage block (%)#: 7(16.3) %
SCNT eggs (F/T SCNT) [5]; RS-1 10 μM, 54 NT oocytes
  Number of embryos at 2-cell stage (%)+: 50%
SCNT eggs (F/T SCNT) [5]; RS-1 10 μM
  Number of embryos at 4-cell stage (%)#: 47%
  Number of blastocysts (%)#: 28(56) %
  Number of embryos at 2-cell stage block (%)#: 3(6) %
SCNT eggs (F/T SCNT) [5]; RS-1 10 μM, control group 31%, Table 1
  embryonic development rate: 76%
SCNT eggs (F/T SCNT) [5]; treatment with RS-1 during SCNT, FIG. 3A, control group 17%
  embryonic development rate: 59%
SCNT eggs (F/T SCNT) [5]; treatment with RS-1 during SCNT, FIG. 3A, control group 39%
  number of embryos at the 2-cell stage block: 5%
SCNT eggs (F/T SCNT) [6]; 1-cell stage, SCNT+RS-1 group vs SCNT group
  DNA damage (rH2AX and Rad51 expression): significant reduction in DNA damage
SCNT eggs (F/T SCNT) [6]; 2-cell stage block, SCNT+RS-1 group compared with other groups
  DNA damage (rH2AX and Rad51 expression): very strong DNA damage in the nucleus
